Laboratory results: ChEMBL document CHEMBL3526058, “Investigating the enteroenteric recirculation of apixaban, a factor Xa inhibitor: administration of activated charcoal to bile duct-cannulated rats and dogs receiving an intravenous dose and use of drug transporter knockout rats” (Drug Metab Dispos, 2013)

Columns and labels:
[1] = Cmax in BCRP-knockout Sprague-Dawley rat at 2 mg/kg, iv; assay type: ADME, organism-based; design: dose 2 mg/kg, route intravenous; details: in vivo
Rattus norvegicus [2] = assay: Metabolism and biliary clearance in P-gp-knockout Sprague-Dawley rat at 2 mg/kg, iv; assay type: ADME, organism-based, Bile; design: dose 2 mg/kg, route intravenous; details: in vivo
[3] = Renal clearance in wild-type bile duct-cannulated Sprague-Dawley rat at 2 mg/kg, iv administered 0.125 hr post GF-120918 treatment; assay type: ADME, organism-based, Kidney; design: dose 2 mg/kg, route intravenous; details: in vivo, with GF-120918
Rattus norvegicus [4] = assay: Intestinal clearance in wild-type bile duct-cannulated Sprague-Dawley rat at 2 mg/kg, iv administered 0.125 hr post GF-120918 treatment; assay type: ADME, organism-based; design: dose 2 mg/kg, route intravenous; details: in vivo
Rattus norvegicus [5] = assay: Metabolism and biliary clearance in wild-type 30 mins activated charcoal pre-treated bile duct-cannulated Sprague-Dawley rat at 2 mg/kg, iv followed by activated charcoal administration 5 to 180 mins post compound dosing relative to total clearance; assay type: ADME, organism-based; design: dose 2 mg/kg, route intravenous; details: in vivo
[6] = Volume of distribution at steady state in bile duct-cannulated beagle dog at 1 mg/kg, iv administered as 5 mins infusion; assay type: ADME, organism-based, Canis lupus familiaris; design: dose 1 mg/kg, route intravenous; details: in vivo, read-out: Vdss
[7] = Drug recovery in feces of Sprague-Dawley rat at 2 mg/kg, iv measured up to 168 hrs; assay type: ADME, organism-based; design: dose 2 mg/kg, route intravenous; details: read-out: Drug recovery
[8] = Drug recovery in feces of beagle dog at 5 mg/kg, po measured up to 72 hrs; assay type: ADME, organism-based, Canis lupus familiaris; design: dose 5 mg/kg, route oral; details: read-out: Drug recovery
[9] = Cmax in P-gp-knockout Sprague-Dawley rat at 2 mg/kg, iv; assay type: ADME, organism-based; design: dose 2 mg/kg, route intravenous; details: in vivo
[10] = Drug recovery in urine of 30 mins activated charcoal pre-treated bile duct-cannulated Sprague-Dawley rat at 2 mg/kg, iv followed by activated charcoal administration 5 to 180 mins post compound dosing measured up to 48 hrs; assay type: ADME, organism-based; design: dose 2 mg/kg, route intravenous; details: read-out: Drug recovery
[11] = Clearance in P-gp-knockout Sprague-Dawley rat at 2 mg/kg, iv; assay type: ADME, organism-based; design: dose 2 mg/kg, route intravenous; details: in vivo
[12] = Half life in P-gp-knockout Sprague-Dawley rat at 2 mg/kg, iv; assay type: ADME, organism-based; design: dose 2 mg/kg, route intravenous; details: in vivo
[13] = Drug recovery in bile of bile duct-cannulated beagle dog at 1 mg/kg, iv administered as 5 mins infusion measured up to 72 hrs; assay type: ADME, organism-based, Canis lupus familiaris; design: dose 1 mg/kg, route intravenous; details: read-out: Drug recovery
[14] = Drug recovery in feces of beagle dog at 1 mg/kg, iv administered as 5 mins infusion measured up to 72 hrs; assay type: ADME, organism-based, Canis lupus familiaris; design: dose 1 mg/kg, route intravenous; details: read-out: Drug recovery
[15] = Renal clearance in wild-type 30 mins activated charcoal pre-treated bile duct-cannulated Sprague-Dawley rat at 2 mg/kg, iv followed by activated charcoal administration 5 to 180 mins post compound dosing; assay type: ADME, organism-based, Kidney; design: dose 2 mg/kg, route intravenous; details: in vivo
[16] = Volume of distribution at steady state in BCRP-knockout Sprague-Dawley rat at 2 mg/kg, iv; assay type: ADME, organism-based; design: dose 2 mg/kg, route intravenous; details: in vivo, read-out: Vdss
[17] = Clearance in wild-type 30 mins activated charcoal pre-treated bile duct-cannulated Sprague-Dawley rat at 2 mg/kg, iv followed by activated charcoal administration 5 to 180 mins post compound dosing; assay type: ADME, organism-based; design: dose 2 mg/kg, route intravenous; details: in vivo
[18] = Plasma protein binding in Sprague-Dawley rat; assay type: ADME, cell-free; details: read-out: PPB (converted)
Rattus norvegicus [19] = assay: Intestinal clearance in P-gp-knockout Sprague-Dawley rat at 2 mg/kg, iv; assay type: ADME, organism-based; design: dose 2 mg/kg, route intravenous; details: in vivo
[20] = Drug recovery in urine of beagle dog at 1 mg/kg, iv administered as 5 mins infusion measured up to 72 hrs; assay type: ADME, organism-based, Canis lupus familiaris; design: dose 1 mg/kg, route intravenous; details: read-out: Drug recovery
[21] = Drug recovery in feces of bile duct-cannulated Sprague-Dawley rat at 30 mg/kg, po measured up to 48 hrs; assay type: ADME, organism-based; design: dose 30 mg/kg, route oral; details: read-out: Drug recovery
Rattus norvegicus [22] = assay: Metabolism and biliary clearance in wild-type bile duct-cannulated Sprague-Dawley rat at 2 mg/kg, iv; assay type: ADME, organism-based; design: dose 2 mg/kg, route intravenous; details: in vivo
[23] = Drug recovery in urine of bile duct-cannulated Sprague-Dawley rat at 2 mg/kg, iv administered 1 hr post GF-120918 treatment measured up to 48 hrs; assay type: ADME, organism-based; design: dose 2 mg/kg, route intravenous; details: with GF-120918, given 1 hr before the compound, read-out: Drug recovery
[24] = Drug recovery in feces of bile duct-cannulated BCRP-knockout Sprague-Dawley rat at 2 mg/kg, iv measured up to 24 hrs; assay type: ADME, organism-based; design: dose 2 mg/kg, route intravenous; details: read-out: Drug recovery
[25] = Mean residence time in wild-type bile duct-cannulated Sprague-Dawley rat at 2 mg/kg, iv; assay type: ADME, organism-based; design: dose 2 mg/kg, route intravenous; details: in vivo
[26] = Drug recovery in urine of Sprague-Dawley rat at 2 mg/kg, iv measured up to 168 hrs; assay type: ADME, organism-based; design: dose 2 mg/kg, route intravenous; details: read-out: Drug recovery
[27] = Mean residence time in BCRP-knockout Sprague-Dawley rat at 2 mg/kg, iv; assay type: ADME, organism-based; design: dose 2 mg/kg, route intravenous; details: in vivo
Rattus norvegicus [28] = assay: Intestinal clearance in BCRP-knockout Sprague-Dawley rat at 2 mg/kg, iv relative to total clearance; assay type: ADME, organism-based; design: dose 2 mg/kg, route intravenous; details: in vivo

Cmax [1]: 2370 ng/mL
CL (Rattus norvegicus [2]): 4.83 mL/min/kg
CL renal at 0.125 h [3]: 5.83 mL/min/kg
CL (Rattus norvegicus [4]): 1.7 mL/min/kg
CL (Rattus norvegicus [5]): 33%
Vd [6]: 0.2 L/kg
dose excreted at 168 h [7]: 41.1%
dose excreted at 72 h [8]: 73.7%
Cmax [9]: 2160 ng/mL
dose excreted [10]: 40.7%
clearance [11]: 13.3 mL/min/kg
half-life [12]: 1.1 h
dose excreted [13]: 12.4%
dose excreted [14]: 50.8%
CL renal [15]: 13 mL/min/kg
Vd [16]: 1.8 L/kg
clearance [17]: 33.3 mL/min/kg
fraction unbound [18]: 0.04
CL (Rattus norvegicus [19]): 3.67 mL/min/kg
dose excreted [20]: 9.9%
dose excreted at 48 h [21]: 69.8%
CL (Rattus norvegicus [22]): 6.5 mL/min/kg
dose excreted [23]: 50.6%
dose excreted at 24 h [24]: 34.1%
MRT [25]: 0.6 h
dose excreted at 168 h [26]: 51.3%
MRT [27]: 1.4 h
CL (Rattus norvegicus [28]): 37%
Compound: COc1ccc(-n2nc(C(N)=O)c3c2[14C](=O)N(c2ccc(N4CCCCC4=O)cc2)CC3)cc1
